Values after ≈ are worked out from the molar mass of the structure shown. Structures can show the parent of a compound that is named as a salt. Square brackets hold non-standard residues; d marks the D form. Peptide text beside a SMILES is read from it. Cit = NC(=O)NCCC[C@H](N)C(=O)O
Key:
[1] = pKa, pI and % salt of peptidic buffers; type: physicochemical
[2] = Conductivities and solubilities of selected multipeptides at their pI; type: physicochemical; details: for pI: Table 1; for Solubility: at pI
Source text: Table 1 lists conductivities and solubilities of selected multipeptides useful in the present invention, at their pI. The pH buffering capacity of the peptidic buffers of the present invention can be explained by using Gly-His at pH 7.5 as an example (the pI of Gly-His is 7.55). At this pH, the net charge of the molecule is essentially zero. At the pI, three species coexist. The bulk of the molecule (70%) consists of the neutral species that bears two internal charges, one positive and one negative resulting in a net charge of zero. […] Although there are small percentages of species presenting a net positive or negative charge in solution, there is minimal ionic transport of these charged species due to charge equilibrium between the three species (i.e., a positive charge migrating in the electric field will revert almost instantly to its neutral form and lose momentum or to its negative form and migrate backward). Thus, there is little if any ionic transport of the charged peptides into the systemic circulation of the patient. Due to the same principle of charge equilibrium, any depletion of the charged molecules will be compensated immediately by dissociation of the neutral form to its charged species thereby providing a reservoir insuring long term pH stability. In addition, if loss of the molecule occurs by electroosmosis of the neutral species, this will not result in any pH changes.

[3] = cited from earlier work

| SMILES | pka A (acidic pKa) ([1]; Table 2, first acidic pKa) | pka B (basic pKa) ([1]; Table 2, first basic pKa) | pka B (basic pKa) ([1]; Table 2, second basic pKa) | pI [2] | Solubility [2] [mM] | pka A (acidic pKa) ([1]; Table 2, second acidic pKa) | other results |
| --- | --- | --- | --- | --- | --- | --- | --- |
| NCC(=O)N[C@@H](Cc1c[nH]cn1)C(=O)O [Gly-His] (H-Gly-His-OH; N-terminus and C-terminus assumed) | 2.42 | 6.71 | 8.39 | 7.55 | 1000 (≈ 212 mg/mL) |  |  |
| NCCCC[C@H](N)C(=O)N[C@@H](CCC(=O)O)C(=O)O [Lys-Glu] (H-Lys-Glu-OH; N-terminus and C-terminus assumed) | 2.74 | 7.92 | 11.12 | 6.06 | 500 (≈ 138 mg/mL) | 4.18 |  |
| N[C@@H](Cc1c[nH]cn1)C(=O)NCC(=O)O [His-Gly] (H-His-Gly-OH; N-terminus and C-terminus assumed) | 2.41 | 5.90 | 7.91 | 6.90 | 1000 (≈ 212 mg/mL) |  |  |
| NCCCC[C@H](NC(=O)[C@@H](N)CCC(=O)O)C(=O)O [Glu-Lys] (H-Glu-Lys-OH; N-terminus and C-terminus assumed) | 2.85 | 7.94 | 11.07 | 6.00 | 1000 (≈ 275 mg/mL) | 4.01 |  |
| C[C@H](NC(=O)[C@@H](N)Cc1c[nH]cn1)C(=O)O [His-Ala] (H-His-Ala-OH; N-terminus and C-terminus assumed) | 2.48 | 6.10 | 7.80 | 6.95 | 500 (≈ 113 mg/mL) |  |  |
| N[C@@H](Cc1c[nH]cn1)C(=O)N[C@@H](CC(=O)O)C(=O)O [His-Asp] (H-His-Asp-OH; N-terminus and C-terminus assumed) | 2.28 | 6.45 | 8.19 | 5.22 | 50 (≈ 13.5 mg/mL) | 3.99 |  |
| CO/N=C(\C(=O)N[C@@H]1C(=O)N2C(C(=O)O)=C(CSc3nc(=O)c(=O)[nH]n3C)CS[C@H]12)c1csc(N)n1 [ceftriaxone] |  |  |  |  |  |  | pKa (amine) ([3]; amine): 3.2; pKa (carboxylic) ([3]; carboxylic): 3; pKa (enolic OH) ([3]; enolic OH): 4.1 |
| N[C@@H](Cc1c[nH]cn1)C(=O)N[C@@H](CCC(=O)O)C(=O)O [His-Glu] (H-His-Glu-OH; N-terminus and C-terminus assumed) | 2.30 | 6.32 | 8.07 | 5.20 | 400 (≈ 114 mg/mL) | 4.19 |  |
| N=C(N)NCCC[C@H](N)C(=O)N[C@@H](CC(=O)O)C(=O)O [Arg-Asp] (H-Arg-Asp-OH; N-terminus and C-terminus assumed) | 2.64 | 8.05 | 12.50 |  |  | 4.10 |  |
| CC(C)C[C@H](NC(=O)[C@@H](N)Cc1c[nH]cn1)C(=O)O [His-Leu] (H-His-Leu-OH; N-terminus and C-terminus assumed) | 3.10 | 6.10 | 7.80 |  |  |  |  |
| N[C@@H](CC(=O)O)C(=O)N[C@@H](CC(=O)O)C(=O)O [Asp-Asp] (H-Asp-Asp-OH; N-terminus and C-terminus assumed) | 2.70 | 8.26 |  |  |  | 3.40 | pka A (acidic pKa) ([1]; Table 2, third acidic pKa): 4.70 |
| Cn1cncc1C[C@H](NC(=O)CCN)C(=O)O [Anserine] | 2.64 | 7.04 | 9.49 |  |  |  |  |
| CC(C)[C@H](N)C(=O)N[C@@H](Cc1c[nH]cn1)C(=O)O [Val-His] (H-Val-His-OH; N-terminus and C-terminus assumed) | 3.09 | 6.83 | 7.94 | 7.38 | 200 (≈ 50.9 mg/mL) |  |  |
| CSCC[C@H](NC(=O)[C@@H](N)Cc1c[nH]cn1)C(=O)O [His-Met] (H-His-Met-OH; N-terminus and C-terminus assumed) | 2.89 | 6.10 | 7.80 |  |  |  |  |
| NCCC[C@H](N)C(=O)N[C@@H](Cc1c[nH]cn1)C(=O)O [Ornithine-His] | 2.42 | 6.71 | 7.30 |  |  |  | pka B (basic pKa) ([1]; Table 2, third basic pKa): 11.00 |
| CO/N=C(\C(=O)N[C@@H]1C(=O)N2C(C(=O)O)=C(CSc3nc(C)c(CC(=O)O)s3)CS[C@H]12)c1csc(N)n1 [Cefodizime disodium salt] |  |  |  |  |  |  | pKa (first value) ([3]; first listed): 2.85; pKa (second value) ([3]; second listed): 3.37; pKa (third value) ([3]; third listed): 4.18 |
| N[C@@H](Cc1c[nH]cn1)C(=O)N[C@@H](Cc1c[nH]c2ccccc12)C(=O)O [His-Trp] | 3.07 | 6.10 | 7.80 |  |  |  |  |
| NCCCC[C@H](N)C(=O)N[C@@H](CC(=O)O)C(=O)O [Lys-Asp] (H-Lys-Asp-OH; N-terminus and C-terminus assumed) | 2.64 | 8.05 | 11.20 | 6.08 | 1000 (≈ 261 mg/mL) | 4.10 |  |
| N[C@@H](CC(=O)O)C(=O)N[C@@H](Cc1c[nH]cn1)C(=O)O [Asp-His] (H-Asp-His-OH; N-terminus and C-terminus assumed) | 2.45 | 6.81 | 7.98 |  |  | 3.02 |  |
| N[C@@H](Cc1c[nH]cn1)C(=O)N[C@@H](Cc1ccccc1)C(=O)O [His-Phe] (H-His-Phe-OH; N-terminus and C-terminus assumed) | 2.88 | 6.10 | 7.80 |  |  |  |  |
| CC(C)C[C@H](N)C(=O)N[C@@H](Cc1c[nH]cn1)C(=O)O [Leu-His] (H-Leu-His-OH; N-terminus and C-terminus assumed) | 2.42 | 6.71 | 8.25 |  |  |  |  |
| NC(=O)C[C@H](N)C(=O)N[C@@H](Cc1c[nH]cn1)C(=O)O [Asn-His] (H-Asn-His-OH; N-terminus and C-terminus assumed) | 2.42 | 6.71 | 7.30 |  |  |  |  |
| N=C(N)NCCC[C@H](NC(=O)[C@@H](N)Cc1ccc(O)cc1)C(=O)O [Tyr-Arg] | 2.64 | 7.39 | 11.62 |  |  | 9.36 |  |
| O=C(O)[C@H](Cc1c[nH]cn1)NC(=O)[C@@H]1CC(O)CN1 (stereo partly drawn) [Hydroxyproline-His] | 2.42 | 6.71 | 8.23 |  |  |  |  |
| N[C@@H](Cc1c[nH]c2ccccc12)C(=O)N[C@@H](Cc1c[nH]cn1)C(=O)O [Trp-His] (H-Trp-His-OH; N-terminus and C-terminus assumed) | 2.42 | 6.71 | 7.90 |  |  |  |  |
| NCC(O)CC[C@H](N)C(=O)N[C@@H](Cc1c[nH]cn1)C(=O)O (stereo partly drawn) [Hydroxylysine-His] | 2.42 | 6.71 | 7.40 |  |  |  | pka B (basic pKa) ([1]; Table 2, third basic pKa): 9.70 |
| N[C@@H](Cc1ccc(O)cc1)C(=O)N[C@@H](Cc1c[nH]cn1)C(=O)O [Tyr-His] (H-Tyr-His-OH; N-terminus and C-terminus assumed) | 2.42 | 6.71 | 7.60 |  |  | 9.90 |  |
| C[C@H](N)C(=O)N[C@@H](Cc1c[nH]cn1)C(=O)O [Ala-His] (H-Ala-His-OH; N-terminus and C-terminus assumed) | 2.42 | 6.71 | 8.37 |  |  |  |  |
| NC(=O)NCCC[C@H](N)C(=O)N[C@@H](Cc1c[nH]cn1)C(=O)O [Citrulline-His] (H-[Cit]-His-OH; N-terminus and C-terminus assumed) | 2.42 | 6.71 | 7.90 |  |  |  |  |

Reference: US20050142531A1, “Peptidically buffered formulations for electrotransport applications and methods of making” (priority 2003, published 2005)
